Tests used:
[1] = tested on: medulloblastoma cells from Ptch1−/− mice; experiment: Medulloblastoma cell proliferation, 48 h treatment (Ki67 immunocytochemistry); assay type: cell-based, mouse
Protocol: (§1) To examine the functions of exosomes in medulloblastoma cell proliferation, tumor cells from Ptch1^−/− mice were isolated and treated with GW4869 or DMSO for 48 hours. […] To determine whether tumor cell-derived exosomes mediate vismodegib resistance, exosomes from medulloblastoma cells were collected and treated with 200 nM of vismodegib for 48 hours. Medulloblastoma cells from Ptch1^−/− mice were treated with DMSO, vismodegib, or vismodegib together with tumor cell-derived exosomes for 48 hours. Following treatment, medulloblastoma cells were harvested to examine their proliferation by immunocytochemistry (see, FIG. 4). […] Finally, exosomes from medulloblastoma cells were harvested and treated with DMSO or vismodegib for 48 hours.

[2] = tested on: MB-luciferase cells injected into the cerebellum; experiment: In vivo bioluminescence imaging of MB-luciferase tumor growth in NSG mice; design: species or system mouse
Protocol: MB-luciferase cells were generated and stereotaxically injected into the cerebellum of 6- to 8-week-old NSG mice. Animals were monitored weekly using in vivo bioluminescence imaging and bioluminescence was detected as Day 0. The tumor-bearing mice were treated with vismodegib (50 mg/kg) for 7 days. These mice were separated into two groups randomly, one group was treated with a vehicle and another group was treated with GW4869 (1.25 mg/kg per day) for 3 weeks (FIG. 9A). They were monitored weekly using in vivo bioluminescence imaging (FIG. 9B).

[3] = tested on: Gli1 mRNA (shh signaling) in medulloblastoma cells; experiment: Gli1 mRNA levels in MB cells by q-PCR; assay type: cell-based, mouse; conditions: MB cells after 48 hours treatment
Protocol: as §1

[4] = tested on: Ras protein in exosomes derived from medulloblastoma cells; experiment: Western blotting of Ras in exosomes from treated MB cells; assay type: cell-based, mouse; conditions: exosomes from MB cells treated with DMSO or vismodegib for 48 hours
Protocol: as §1

Compound	medulloblastoma cell proliferation ([1]; tumor cells from Ptch1−/− mice, GW4869 vs DMSO, data not shown)	tumor growth (bioluminescence) after 28 days, with vs without GW4869 ([2]; after vismodegib 50 mg/kg 7 days, GW4869 1.25 mg/kg per day 3 weeks vs vehicle, p<0.05)	medulloblastoma cell proliferation (Ki67+ cells) ([1]; MB cells from Ptch1−/− mice, DMSO vs vismodegib vs vismodegib + exosomes, exosome-donor cells vismodegib 200 nM)	Gli1 mRNA levels [3]	tumor growth (bioluminescence) ([2]; vismodegib 50 mg/kg for 7 days)	Ras protein in exosomes [4]
Cl.Cl.O=C(C=Cc1ccc(C=CC(=O)Nc2ccc(C3=NCCN3)cc2)cc1)Nc1ccc(C2=NCCN2)cc1 [GW4869, N,N′-Bis[4-(4,5-dihydro-1H-imidazol-2-yl)phenyl]-3,3′-p-phenylene-bis-acrylamide dihydrochloride]	significantly repressed medulloblastoma cell proliferation	significant difference	–	–	–	–
CS(=O)(=O)c1ccc(C(=O)Nc2ccc(Cl)c(-c3ccccn3)c2)c(Cl)c1 [vismodegib]	–	–	significantly repressed tumor cell proliferation	decreased	significantly reduce tumor growth	readily detected

Reference: patent US20230184770A1, “Exosome Analysis And Brain Tumors” (Institute For Cancer Research d/b/a The Research Institute …, priority 2020, published 2023)
